Experimental data taken from patent US12692264B2, “Pyrimidine or pyridine derivative, preparation method therefor, and application thereof in pharmacy” (ABBISKO THERAPEUTICS CO., LTD., priority 2021, dated 2026).

How the values were obtained:
Assay type in all cases: cell-based
A431 (EGFR-WT) = test: Cell proliferation study (CellTiter-Glo, 72 hrs), A431; conditions: Homo sapiens, A-431, A431 cells, CTG, * = average of multiple measurements
Method in brief: (§1)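 Cells were seeded overnight, then exposed for 72 hrs at 37 °C, 5% CO2 to 9 concentrations in 3.16-fold steps, 0.1% DMSO final, triplicate wells. Viability was read by CellTiter-Glo luminescence, with a T0 plate read at dosing. IC50 came from nonlinear sigmoidal dose-response fits.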

[1] = biological target: Ba/F3 EGFR-D770-N771ins_SVD (Homo sapiens, UniProt P00533, DUP768-770, cells depend on it); test: Cell proliferation study (CellTiter-Glo, 72 hrs), Ba/F3 EGFR-D770-N771ins_SVD; conditions: CTG, * = average of multiple measurements, read-out: Ba/F3 EGFR-D770-N771ins_SVD IC50
Method in brief: as §1

[2] = biological target: Ba/F3 EGFR-V769_D770insASV (Homo sapiens, UniProt P00533, DUP767-769, cells depend on it); test: Cell proliferation study (CellTiter-Glo, 72 hrs), Ba/F3 EGFR-V769_D770insASV; conditions: CTG, * = average of multiple measurements, read-out: Ba/F3 EGFR-V769_D770insASV IC50
Method in brief: as §1

Ba/F3 EGFR-V769_D770insASV, sequence (P00533 with tags, fused parts or gaps DUP767-769): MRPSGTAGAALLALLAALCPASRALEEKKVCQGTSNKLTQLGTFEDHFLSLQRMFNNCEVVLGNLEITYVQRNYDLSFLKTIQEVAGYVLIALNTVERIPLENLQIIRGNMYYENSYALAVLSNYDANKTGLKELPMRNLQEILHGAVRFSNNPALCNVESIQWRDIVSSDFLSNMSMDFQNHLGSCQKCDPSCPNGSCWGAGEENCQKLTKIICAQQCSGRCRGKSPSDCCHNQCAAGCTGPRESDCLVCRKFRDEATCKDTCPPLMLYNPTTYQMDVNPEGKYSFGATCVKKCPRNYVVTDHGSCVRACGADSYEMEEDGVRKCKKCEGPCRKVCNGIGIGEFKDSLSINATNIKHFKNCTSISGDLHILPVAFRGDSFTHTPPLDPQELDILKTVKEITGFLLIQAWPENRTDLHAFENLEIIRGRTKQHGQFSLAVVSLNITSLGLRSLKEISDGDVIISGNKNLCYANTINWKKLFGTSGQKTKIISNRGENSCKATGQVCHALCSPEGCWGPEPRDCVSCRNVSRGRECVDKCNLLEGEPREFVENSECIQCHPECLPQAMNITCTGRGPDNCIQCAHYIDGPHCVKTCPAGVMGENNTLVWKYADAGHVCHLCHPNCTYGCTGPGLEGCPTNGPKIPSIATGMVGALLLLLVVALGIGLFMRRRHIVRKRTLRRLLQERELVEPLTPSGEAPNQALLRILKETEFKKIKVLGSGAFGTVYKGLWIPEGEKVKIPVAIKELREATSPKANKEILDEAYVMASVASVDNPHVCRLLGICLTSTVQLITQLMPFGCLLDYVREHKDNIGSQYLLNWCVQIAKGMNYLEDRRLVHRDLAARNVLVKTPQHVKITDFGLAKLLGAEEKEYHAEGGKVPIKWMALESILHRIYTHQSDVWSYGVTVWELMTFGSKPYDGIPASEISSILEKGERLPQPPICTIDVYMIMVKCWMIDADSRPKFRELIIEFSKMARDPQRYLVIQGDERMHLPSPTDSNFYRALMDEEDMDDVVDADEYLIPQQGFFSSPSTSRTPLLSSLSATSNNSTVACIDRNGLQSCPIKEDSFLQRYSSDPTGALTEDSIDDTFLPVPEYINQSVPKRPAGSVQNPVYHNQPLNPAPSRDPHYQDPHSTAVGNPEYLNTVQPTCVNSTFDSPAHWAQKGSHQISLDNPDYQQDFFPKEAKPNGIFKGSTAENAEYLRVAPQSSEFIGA
Ba/F3 EGFR-D770-N771ins_SVD, sequence (P00533 with tags, fused parts or gaps DUP768-770): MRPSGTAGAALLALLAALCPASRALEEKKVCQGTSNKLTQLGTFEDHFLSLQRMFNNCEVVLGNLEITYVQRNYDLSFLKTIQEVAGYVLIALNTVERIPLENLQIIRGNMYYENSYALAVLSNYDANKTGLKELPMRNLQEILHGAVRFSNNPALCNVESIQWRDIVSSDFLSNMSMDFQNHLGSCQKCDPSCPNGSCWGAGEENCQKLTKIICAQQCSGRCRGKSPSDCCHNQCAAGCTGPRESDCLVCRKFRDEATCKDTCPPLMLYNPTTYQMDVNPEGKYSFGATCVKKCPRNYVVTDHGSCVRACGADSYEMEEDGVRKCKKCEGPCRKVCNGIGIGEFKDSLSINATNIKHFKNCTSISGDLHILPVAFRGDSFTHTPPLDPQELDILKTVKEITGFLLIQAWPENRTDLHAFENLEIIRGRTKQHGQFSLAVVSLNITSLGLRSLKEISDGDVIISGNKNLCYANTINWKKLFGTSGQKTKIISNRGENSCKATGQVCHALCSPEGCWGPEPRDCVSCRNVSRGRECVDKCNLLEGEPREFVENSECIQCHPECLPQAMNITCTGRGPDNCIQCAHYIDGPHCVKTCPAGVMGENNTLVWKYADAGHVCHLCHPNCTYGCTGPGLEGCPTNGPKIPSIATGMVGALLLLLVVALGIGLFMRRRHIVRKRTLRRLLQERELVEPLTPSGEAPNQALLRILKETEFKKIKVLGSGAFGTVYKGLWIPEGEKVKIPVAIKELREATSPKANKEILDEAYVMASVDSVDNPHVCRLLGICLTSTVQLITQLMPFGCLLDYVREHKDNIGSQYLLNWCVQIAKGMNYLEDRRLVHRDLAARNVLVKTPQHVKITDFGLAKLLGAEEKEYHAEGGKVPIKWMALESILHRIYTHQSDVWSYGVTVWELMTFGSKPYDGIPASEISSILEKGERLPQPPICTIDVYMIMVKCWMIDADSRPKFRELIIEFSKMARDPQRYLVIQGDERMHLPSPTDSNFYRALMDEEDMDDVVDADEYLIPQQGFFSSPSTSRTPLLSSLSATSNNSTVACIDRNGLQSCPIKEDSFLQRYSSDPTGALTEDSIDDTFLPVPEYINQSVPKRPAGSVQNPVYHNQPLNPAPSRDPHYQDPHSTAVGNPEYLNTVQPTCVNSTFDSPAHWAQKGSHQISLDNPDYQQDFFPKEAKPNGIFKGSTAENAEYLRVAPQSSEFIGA

SMILES | IC50 (A431 (EGFR-WT)) [nM] | GI50 [1] [nM] | GI50 [2] [nM]
C=CC(=O)Nc1cc(Nc2ncc(C(=O)OC(C)C)c(N3CC(C)(C)c4nc(C)ccc43)n2)c(OC)cc1N1CC(N(C)C)C1 [Example 40, isopropyl 2-((5-acrylamido-4-(3-(dimethylami-no)azetidin-1-yl)-2-methoxyphenyl)ami-no)-4-(3,3,5-trimethyl-2,3-dihydro-1H-pyrrolo[3,2-b]pyridin-1-yl)pyrimidine-5-carboxylate] | 295 | 33.9 | 44.2
C=CC(=O)Nc1cc(Nc2ncc(C(=O)OC(C)C)c(N3CC(C)(C)c4nc(C#CC)ccc43)n2)c(OC)cc1N1C[C@@H](F)C[C@@H]1CN(C)C [Example 84, isopropyl 2-((5-acrylamido-4-((2R,4S)-2-((di-methylamino)methyl)-4-fluoro-pyrrolidin-1-yl)-2-methoxy-phenyl)amino)-4-(3,3-dimethyl-5-(prop-1-yn-1-yl)-2,3-dihydro-1H-pyrrolo[3,2-b]pyridin-1-yl)pyrimidine-5-carboxylate] | 220 | 12 | 12.6
[2H]C([2H])([2H])N(CCN(C([2H])([2H])[2H])C([2H])([2H])[2H])c1cc(OC)c(Nc2ncc(C(=O)OC(C)C)c(N3c4ccc(C)nc4C(C)(C)C3([2H])[2H])n2)cc1NC(=O)C=C [Example 78, isopropyl 2-((5-acrylamido-4-((2-(bis(methyl-d3)amino)ethyl)(methyl-d3)amino)-2-methoxyphenyl)amino)-4-(3,3,5-tri-methyl-2,3-dihydro-1H-pyrrolo[3,2-b]pyridin-1-yl-2,2-d2)pyrimidine-5-carboxylate] | 72 | 12.3 | 36.4
C=CC(=O)Nc1cc(Nc2ncc(C(=O)OC(C)C)c(N3CC(C)(C)c4nc(C)ccc43)n2)c(OC)cc1N1C[C@H]2CN(C)C[C@H]2C1 [Example 58, isopropyl 2-((5-acrylamido-2-methoxy-4-((3aR,6aS)-5-methylhexahydro-pyrrolo[3,4-c]pyrrol-2(1H)-yl)phenyl)amino)-4-(3,3,5-trimethyl-2,3-dihydro-1H-pyrrolo[3,2-b]pyridin-1-yl)pyrimidine-5-carboxylate] | 1280 | 28.7 | 38.1
C=CC(=O)Nc1cc(Nc2ncc(C(=O)OC(C)C)c(N3CC(C)(C)c4ncccc43)n2)c(OC(F)F)cc1N(C)CCN(C)C [Example 3, isopropyl 2-((5-acrylamido-2-(difluoromethoxy)-4-((2-(dimethylamino)ethyl)(methyl)ami-no)phenyl)amino)-4-(3,3-dimethyl-2,3-dibydro-1H-pyrrolo[3,2-b]pyridin-1-yl)pyrimidine-5-carboxylate] | 371 | 23.2 | 33.1
[2H]C1([2H])N(c2nc(Nc3cc(NC(=O)C=C)c(N4C[C@@H](F)C[C@@H]4CN(C)C)cc3OC)ncc2C(=O)OC(C)C)c2ccc(C)nc2C1(C)C [Example 82, isopropyl 2-((5-acrylamido-4-((2R,4S)-2-((di-methylamino)methyl)-4-fluoro-pyrrolidin-1-yl)-2-methoxy-phenyl)amino)-4-(3,3,5-trimethyl-2,3-dihydro-1H-pyrrolo[3,2-b]pyridin-1-yl-2,2-d2)pyrimidine-5-carboxylate] | 76 | 11.2 | 12.9
C=CC(=O)Nc1cc(Nc2ncc(C(=O)OC(C)C)c(N3CC4(CC4)c4ncccc43)n2)c(OC)cc1N(C)CCN(C)C [Example 21, isopropyl 2-((5-acrylamido-4-((2-(dimethylami-no)ethyl)(methyl)amino)-2-methoxy-phenyl)amino)-4-(spiro(cyclopropane-1,3′-pyrrolo[3,2-b]pyridin)-1′(2′H)-yl)pyrimidine-5-carboxylate] | 404 | 24.6 | 56.8
C=CC(=O)Nc1cc(Nc2ncc(C(=O)OC(C)C)c(N3CC(C)(C)c4nc(-c5cnn(C)c5)ccc43)n2)c(OC)cc1N(C)CCN(C)C [Example 8, isopropyl 2-((5-acrylamido-4-((2-(dimethylami-no)ethyl)(methyl)amino)-2-methoxy-phenyl)amino)-4-(3,3-dimethyl-5-(1-methyl-1H-pyrazol-4-yl)-2,3-dihydro-1H-pyrrolo[3,2-b]pyridin-1-yl)pyrimidine-5-carboxylate] | 102 | 11 | 18.7
C=CC(=O)Nc1cc(Nc2ncc(C(=O)OC(C)C)c(N3CC(C)(C)c4nc(C=C)ccc43)n2)c(OC)cc1N(C)CCN(C)C [Example 20, isopropyl 2-((5-acrylamido-4-((2-(dimethylami-no)ethyl)(methyl)amino)-2-methoxy-phenyl)amino)-4-(3,3-dimethyl-5-vinyl-2,3-dihydro-1H-pyrrolo[3,2-b]pyridin-1-yl)pyrimidine-5-carboxylate] | 746 | 34.3 | 66.6
C=CC(=O)Nc1cc(Nc2ncc(C(=O)OC(C)C)c(N3CC(C)(C)c4nc(C)ccc43)n2)c(OC(F)F)cc1N(C)CCN(C)C [Example 81, isopropyl 2-((5-acrylamido-2-(difluoromethoxy)-4-((2-(dimethylamino)eth-yl)(methyl)amino)phenyl)amino)-4-(3,3,5-trimethyl-2,3-dihydro-1H-pyrrolo[3,2-b]pyridin-1-yl)pyrimidine-5-carboxylate] | 128 | 9 | 29.3
[2H]C1([2H])N(c2nc(Nc3cc(NC(=O)C=C)c(N(C)CCN(C)C)cc3OC)ncc2C(=O)OC(C)C)c2ccc(C)nc2C1(C)C [Example 47, isopropyl 2-((5-acrylamido-4-((2-(dimethylami-no)ethyl)(methyl)amino)-2-methoxy-phenyl)amino)-4-(3,3,5-trimethyl-2,3-dihydro-1H-pyrrolo[3,2-b]pyridin-1-yl-2,2-d2)pyrimidine-5-carboxylate] | 56.1 | 13.4 | 22.4
C=CC(=O)Nc1cc(Nc2ncc(C(=O)OC(C)C)c(N3CC4(CC4)c4nc(C)ccc43)n2)c(OC)cc1N(C)CCN(C)C [Example 22, isopropyl 2-((5-acrylamido-4-((2-(dimethylami-no)ethyl)(methyl)amino)-2-methoxy-phenyl)amino)-4-(5′-methylspiro(cyclo-propane-1,3′-pyrrolo[3,2-b]pyridin)-1′(2′H)-yl)pyrimidine-5-carboxylate] | 127 | 20.6 | 48.8
C=CC(=O)Nc1cc(Nc2ncc(C(=O)OC(C)C)c(N3CC4(CCC4)c4nc(-c5cnn(C)c5)ccc43)n2)c(OC)cc1N(C)CCN(C)C [Example 10, isopropyl 2-((5-acrylamido-4-((2-(dimethylami-no)ethyl)(methyl)amino)-2-methoxy-phenyl)amino)-4-(5′-(1-methyl-1H-pyrazol-4-yl)spiro(cyclobutane-1,3′-pyrrolo[3,2-b]pyridin)-1′(2′H)-yl)pyrimidine-5-carboxylate] | 278 | 36.9 | 39.4
